How the values were obtained:
[1] = system: DNA Pol I (Klenow fragment, exo-); test: steady-state kinetics of single nucleotide insertions, thymidine analogues in the template; format: biochemical, E. coli; set-up: efficiency: unit not given here; conditions: for efficiency as analog of thymidine in a template strand (summary): Example 4, dATP insertion; for Rel. efficiency: T template = 1; for rel. efficiency: relative to insertion of dATP opposite T
Procedure: In vitro steady-state kinetics. As polymerase substrates we used 28 mer/23 mer template-primer duplexes having the sequence (5′-ACT GXT CTCCCTATAGTGAGTCGTATTA [SEQ ID NO:1])·(5′-TAATACGACTCACTATAGGGAGA [SEQ ID NO:2]). Kinetics were measured at 37° C. in a buffer containing 10 mM Mg^2+. The primer was 5′ end-labeled and was extended by the polymerase in the presence of a single dNTP species over varied concentration and time. Products of single nucleotide insertions were resolved from unreacted primer by 20% denaturing gel electrophoresis, and were quantitated by autoradiography. Details of the kinetics experiments are given in the Supporting Data.
We chose DNA polymerase I (Klenow fragment, exonuclease-deficient) as an ideal candidate for initial study, as it is enzymatically well-characterized among replicative enzymes, and yet is relatively small and acts as a single subunit. We carried out kinetics studies of single nucleotide insertions in the steady state, using a gel electrophoresis-based assay.
Data for single nucleotide insertion kinetics in the steady-state. The enzyme was the Klenow fragment of DNA pol I from E. coli (exonuclease deficient). Methods are as described above.

[2] = system: self-complementary strands (5′-XCGCGCG); test: dangling end thermal denaturation studies (base stacking) with self-complementary strands; format: physicochemical; conditions: dangling residue X in 5′-XCGCGCG
Procedure: Thermal Denaturation Studies. After the samples were prepared in melting buffer (1M NaCl, 10 mM phosphate buffer (pH 7.0) with 0.1 mM EDTA), they were heated to 95° C. and allowed to slowly cool at a rate of 1° C./min to 5° C. The melting studies were carried out in Teflon-stoppered 1 cm path length quartz cells on a Varian Cary 1 UV-vis spectophotometer equipped with thermoprogrammer. Absorbance was monitored at 280 nm for stacking and at 260 nm for base pairing. […] The data were analyzed by the melt curve processing program, MeltWin v. 3.0. Melting temperatures (Tm) were determined by computer-fit of the first derivative of absorbance with respect to 1/T. Uncertainty in Tm is estimated at ±0.5° C. based on repetitions of experiments. Free-energy values were derived by two methods: (1) computer-fitting the denaturation data with an algorithm employing linear sloping baselines, using the two-state approximation for melting. Fits were excellent, with χ^−2 values of 10^−6 or better. (2) Van't Hoff thermodynamic parameters were derived from linear plots of 1/Tm vs In[CT] by measuring Tm as a function of concentration.
Sequence Design. We incorporated all five phosphoramidites into three new sequence contexts each for further study of pairing and stacking properties. The first is a self-complementary sequence designed to form a hexamer duplex, with the nonnatural base analogue overhanging (dangling) at the 5′ ends (Table 2). This same sequence context has been used previously in several studies of DNA base stacking. The second and third contexts comprise a pair of 12mer sequences that form duplexes with well-behaved two-state behavior. One strand is pyrimidine-rich, while the other is purine-rich; we substituted each analogue at a central position of each strand to test two widely varied sequence contexts for pairing effects.
Base Stacking. DNA base stacking stability has been correlated with the size of compounds when mono-, bi-, tri-, and tetra-cyclic base analogues were compared. To test this with the present series, which varies in size by a smaller amount, we examined the short self-complementary oligonucleotides by thermal denaturation experiments. The self-complementary duplexes contained the modified nucleosides as a 5′ overhanging base.

[3] = Example 4: incorporating dATP opposite template thymidine analog

Cc1cc([C@H]2C[C@@H](O)[C@@H](CO)O2)c(Cl)cc1Br [2C4B]
efficiency as analog of thymidine in a template strand (summary) [1]: probably as good | Km [1, 3]: 4.18 ± 0.47 µM | Vmax [1, 3]: 30.4709 ± 0.8544 | efficiency [1, 3]: (7.38 ± 1.07) × 10^6 | Rel. efficiency [1, 3]: 4.0 × 10^−1

Cc1cc([C@H]2C[C@@H](O)[C@@H](CO)O2)c(Cl)cc1Cl [2C4C, 2,4-dichlorotoluene]
efficiency as analog of thymidine in a template strand (summary) [1]: most efficient analog overall

Cc1cc([C@H]2C[C@@H](O)[C@@H](CO)O2)c(F)cc1Cl [2F4C]
efficiency as analog of thymidine in a template strand (summary) [1]: probably as good | Km [1, 3]: 7.51 ± 2.79 µM | Vmax [1, 3]: 49.7002 ± 1.5432 | efficiency [1, 3]: (7.13 ± 2.13) × 10^6 | Rel. efficiency [1, 3]: 3.8 × 10^−1

Cc1cc([C@H]2C[C@@H](O)[C@@H](CO)O2)ccc1Cl [2H4C]
Km [1, 3]: 31.5 ± 8.91 µM | Vmax [1, 3]: 2.8214 ± 0.5396 | efficiency [1, 3]: (9.81 ± 1.58) × 10^4 | Rel. efficiency [1, 3]: 5.3 × 10^−3

Cc1cc([C@H]2C[C@@H](O)[C@@H](CO)O2)cc(Cl)c1Cl [3,4-di-C]
Km [1, 3]: 55 ± 24 µM | Vmax [1, 3]: 0.4291 ± 0.1095 | efficiency [1, 3]: (8.30 ± 1.55) × 10^3 | Rel. efficiency [1, 3]: 4.5 × 10^−4

Cc1cc(Cl)cc([C@H]2C[C@@H](O)[C@@H](CO)O2)c1 [3C]
Km [1, 3]: 51.9 ± 1.9 µM | Vmax [1, 3]: 0.4378 ± 0.1116 | efficiency [1, 3]: (8.62 ± 0.85) × 10^3 | Rel. efficiency [1, 3]: 4.6 × 10^−4

Cc1c[nH]c(=O)[nH]c1=O [T, thymine, reference compound]
Km [1, 3]: 2.6 ± 0.75 µM | Vmax [1, 3]: 45.7931 ± 1.7743 | efficiency [1, 3]: (1.86 ± 0.56) × 10^7 | Rel. efficiency [1, 3]: 1 | Km ([1]; insertion of dATP opposite template base, 37° C.): 1.9 ± 0.5 µM | Vmax ([1]; insertion of dATP opposite template base, 37° C., 10 mM MgCl2, pH 7.5, normalized to lowest enzyme concentration): 24 ± 1 % · m in^−1 | rel. efficiency ([1]; insertion of dATP opposite template base): 1 | Km ([1]; insertion of dCTP opposite template base, 37° C.): 46 ± 28 µM | Vmax ([1]; insertion of dCTP opposite template base, 37° C., 10 mM MgCl2, pH 7.5, normalized to lowest enzyme concentration): 0.022 ± 0.006 % · m in^−1 | rel. efficiency ([1]; insertion of dCTP opposite template base): 3.7 × 10^−5 | Vmax ([1]; insertion of dGTP opposite template base, 37° C., 10 mM MgCl2, pH 7.5, normalized to lowest enzyme concentration): 0.41 ± 0.15 % · m in^−1 | rel. efficiency ([1]; insertion of dGTP opposite template base): 5.6 × 10^−4 | Km ([1]; insertion of dTTP opposite template base, 37° C.): 38 ± 38 µM | Vmax ([1]; insertion of dTTP opposite template base, 37° C., 10 mM MgCl2, pH 7.5, normalized to lowest enzyme concentration): 0.012 ± 0.004 % · m in^−1 | rel. efficiency ([1]; insertion of dTTP opposite template base): 2.5 × 10^−5 | ΔG°37 (van't Hoff) [2]: -9.1 ± 0.1 kcal/mol | ΔH° (van't Hoff) [2]: -54.4 ± 4.1 kcal/mol | ΔS° (van't Hoff) [2]: −146 ± 13 cal/K · mol | ΔΔG° stacking per base [2]: 0.65 kcal/mol | Tm ([2]; 5.0 μM DNA strand, 1M NaCl, 10 mM phosphate buffer (pH 7.0), 0.1 mM EDTA, 280 nm): 46.0 °C | ΔG°37 (fits) ([2]; curve fits): -9.1 ± 0.1 kcal/mol | ΔTm ([2]; versus duplex with no dangling residue): 7.4 °C
